Test results from PMC11233548 (Communications Biology, 2024).
Residues, ends and D or L forms follow the SMILES beside them.

How the values were obtained:
GST-B-RBD = GST-B-RBD (Homo sapiens, UniProt P15056); experiment: Competitive fluorescence polarization, displacement of F-L5UR from GST-B-RBD; type: binding; conditions: competitive fluorescence polarization with F-L5UR; Fig. 2e: F-L5UR (10 nM), GST-B-RBD (15 µM); method: 5 nM F-L5UR, 200 nM RBD; pH 7.4; 30 min, ~22 °C; n = 3
C-RBD = molecular target: T1, C-RBD (Homo sapiens, UniProt P04049); experiment: Competitive fluorescence polarization, displacement of F-L5UR from C-RBD; type: binding; conditions: F-L5UR (5 nM), C-RBD (200 nM), pH 7.4, 30 min, ~22 °C, n = 3
T1 construct: GST-tagged C-Raf-RBD (residues 50–134 of human C-Raf); GST (N, cleaved yes); made in house; host or cells: E. coli BL21 Star (DE3)pLysS

B-RBD = molecular target: T2, B-RBD (Homo sapiens, UniProt P15056); experiment: QRET assay, Eu-L5URcore binding to B-RBD; conditions: Eu-L5URcore (29 nM), B-RBD twofold dilutions, MT2 quencher, 10 mM HEPES pH 7.4, 10 mM NaCl, 30 min, ~22 °C, time-resolved luminescence, n = 2, read-out: IC50
T2 construct: GST-tagged B-Raf-RBD (residues 155–227 of human B-Raf); GST (N); made in house; host or cells: E. coli BL21 Star (DE3)pLysS
Procedure: The QRET assays were modified from our previously described quenching luminescence assays[69]–[71]. Ac-K-L5URcore was conjugated with nonadentate europium chelate, {2,2′,2′′,2’“-{[4′-(4’“-isothiocyanatophenyl)-2,2′,6′,2′′-terpyridine-6,6′′-diyl]bis(methylene-nitrilo)}tetrakis(acetate)}europium(III) (QRET Technologies, Finland) via the epsilon amine of the N-terminal lysine that was added to the L5UR-core peptide sequence and purified with analytical reverse-phase HPLC. The current homogeneous QRET binding assay is based on the quenching of non-bound Eu-K-L5URcore with MT2 quencher (QRET Technologies), while bound labeled peptide is luminescent. In the assay, purified B-RBD or Gal1 were twofold diluted in an assay buffer containing 10 mM HEPES pH 7.4 and 10 mM NaCl added in 5 μL to a white low-volume, round bottom 384-well plate. Eu-K-L5UR core peptide (29 nM), mixed with MT2 according to the manufacturer’s instructions in the assay buffer supplemented with 0.01% (v/v) Triton X-100, was added in 5 μL volume to wells, and incubated for 30 min at ~22 °C on a shaker. The luminescence was measured with Tecan Spark multimode microplate reader (Tecan, Austria) in time-resolved mode using λexcitation 340 ± 40 nm and λemission 620 ± 10 nm with 800 μs delay and 400 μs window times.

Sequence of GST-B-RBD (P15056 155-227): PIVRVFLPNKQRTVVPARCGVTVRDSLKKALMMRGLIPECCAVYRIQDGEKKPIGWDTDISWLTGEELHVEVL
T2 sequence (P15056 155-227): as above

Structure (SMILES): CC(=O)N[C@@H](CO)C(=O)N[C@@H](CCCNC(=N)N)C(=O)N[C@@H](CO)C(=O)N[C@@H](CO)C(=O)N[C@@H](CC(C)C)C(=O)N[C@@H](CCCNC(=N)N)C(=O)N[C@@H](CO)C(=O)N[C@@H](CCCNC(=N)N)C(=O)N[C@@H](Cc1c[nH]c2ccccc12)C(=O)NCC(=O)N[C@@H](CCCNC(=N)N)C(=O)N[C@@H](Cc1ccccc1)C(=O)N[C@@H](CC(C)C)C(=O)N[C@@H](CC(C)C)C(=O)N[C@@H](CCC(N)=O)C(=O)N[C@@H](CCCNC(=N)N)C(=O)NCC(=O)N[C@@H](CO)C(=O)N[C@@H](Cc1c[nH]c2ccccc12)C(=O)N[C@H](C(=O)NCC(=O)N1CCC[C@H]1C(=O)N[C@@H](CCCNC(=N)N)C(N)=O)[C@@H](C)O [L5URcore] (Ac-SRSSLRSRWGRFLLQRGSWTGPR-NH2)
- IC50 (GST-B-RBD): 41 ± 1 µM
- IC50 (C-RBD): 14 ± 6 µM
- EC50 (B-RBD binding to Eu-L5URcore) (B-RBD): 18 ± 1 µM
